{"source": "paper PMC7556730", "about": "(Chemico-biological interactions, 2020)", "key": {"[1]": {"test_system": "glutathione S-transferases (GSTs)", "test": "Cytosolic incubations with benoxacor in the presence of GSH", "type": "in vitro ADME, Sprague Dawley rats", "conditions": "Sprague-Dawley, rat, liver cytosol"}, "[2]": {"test_system": "glutathione S-transferases (GSTs) in rat liver cytosol", "test": "Cytosolic incubations with benoxacor in the presence of GSH", "type": "in vitro ADME, Sprague Dawley rats", "conditions": "for percentage of benoxacor remaining: 1 mg/mL protein, 5 mM GSH, 5 μM benoxacor"}, "microsomal CESs": {"test_system": "microsomal CESs", "test": "Microsomal inhibition study with the CES inhibitor benzil", "type": "in vitro ADME, Sprague Dawley rats"}, "cytosolic GSTs": {"test_system": "cytosolic GSTs", "test": "Cytosolic inhibition study with the GST inhibitor ethacrynic acid", "type": "in vitro ADME, Sprague Dawley rats", "conditions": "for benoxacor depletion in control incubations: ethacrynic acid controls; for percent of benoxacor remaining: 5 minutes"}, "[3]": {"conditions": "cited from earlier work"}, "[4]": {"test_system": "hepatic cytochrome P450 enzymes (CYPs) in rat liver microsomes", "test": "Microsomal incubations with benoxacor in the presence of NADPH", "type": "in vitro ADME, Sprague Dawley rats", "conditions": "for percentage of benoxacor remaining: 0.1 mg/mL protein, 0.5 mM NADPH, 5 μM benoxacor"}, "[5]": {"test_system": "cytochrome P450 enzymes (CYPs)", "test": "Microsomal incubations with benoxacor in the presence of NADPH", "type": "in vitro ADME, Sprague Dawley rats", "conditions": "Sprague-Dawley, rat, liver microsomes"}, "[6]": {"test_system": "microsomal carboxylesterases (CESs)", "test": "Incubations of active microsomes without NADPH", "type": "in vitro ADME, Sprague Dawley rats", "conditions": "male, Sprague-Dawley, rat, liver microsomes"}, "[7]": {"test_system": "microsomal carboxylesterases (CESs) in rat liver microsomes", "test": "Incubations of active microsomes without NADPH", "type": "in vitro ADME, Sprague Dawley rats"}}, "note": "Several values for one entry are separate records, joined by “and”; a condition that tells them apart may be missing. Identical values can stand only once. Marks after values point to notes of the source that are not given here."}
{"compound": "CC1COc2ccccc2N1C(=O)C(Cl)Cl", "note": "(stereo not shown) [benoxacor, Benoxacor]", "values": [{"measurement": "microsomal CLint", "setting": "[1]; female", "value": 280, "unit": "µL/min/mg"}, {"measurement": "microsomal CLint", "setting": "[1]; male", "value": 440, "unit": "µL/min/mg"}, {"measurement": "enantiomeric fraction (EF)", "setting": "[2]; female rat liver cytosol with GSH, 30 minutes", "value": "0.54±0.01"}, {"measurement": "enantiomeric fraction (EF)", "setting": "[2]; female rat liver cytosol with GSH, start of 30-minute time-course", "value": 0.48}, {"measurement": "percentage of benoxacor remaining", "setting": "[2]; female rat liver cytosol, 30 minutes", "value": "18±2", "unit": "%"}, {"measurement": "GST Scaled CLint", "setting": "[2]; female rat, significantly different from male (p = 0.0038)", "value": "25.87^a mL/min/g liver"}, {"measurement": "GST Scaled CLint", "setting": "[2]; male rat", "value": 40.18, "unit": "mL/min/g liver"}, {"measurement": "enantiomeric fraction (EF)", "setting": "[2]; male rat liver cytosol with GSH, 30 minutes", "value": "0.43±0.01 and 0.43"}, {"measurement": "enantiomeric fraction (EF)", "setting": "[2]; male rat liver cytosol with GSH, start of 30-minute time-course", "value": 0.47}, {"measurement": "percentage of benoxacor remaining", "setting": "[2]; male rat liver cytosol, 30 minutes", "value": "9±2", "unit": "%"}, {"measurement": "benoxacor depletion in control incubations", "setting": "microsomal CESs; benzil controls, 5, 50 and 500 nM", "value": "100±1", "unit": "%"}, {"measurement": "depletion of benoxacor in the presence of benzil", "setting": "microsomal CESs; male rat liver microsomes without NADPH, 30 minutes, benzil 5 to 500 nM", "value": "not depleted"}, {"measurement": "percent of benoxacor remaining", "setting": "microsomal CESs; male rat liver microsomes without NADPH, 30 minutes, without benzil", "value": "92±2", "unit": "%"}, {"measurement": "benoxacor depletion in control incubations", "setting": "cytosolic GSTs; 10 μM", "value": "100±1", "unit": "%"}, {"measurement": "benoxacor depletion in control incubations", "setting": "cytosolic GSTs; 100 μM", "value": "102±1", "unit": "%"}, {"measurement": "benoxacor depletion in control incubations", "setting": "cytosolic GSTs; 1000 μM", "value": "100±1", "unit": "%"}, {"measurement": "percent of benoxacor remaining", "setting": "cytosolic GSTs; female rat cytosol with GSH, 1000 μM ethacrynic acid", "value": "98±2", "unit": "%"}, {"measurement": "percent of benoxacor remaining", "setting": "cytosolic GSTs; female rat cytosol with GSH, without inhibitor", "value": "71±3", "unit": "%"}, {"measurement": "percent of benoxacor remaining", "setting": "cytosolic GSTs; male rat preparations with GSH, with ethacrynic acid", "value": "96±2", "unit": "%"}, {"measurement": "percent of benoxacor remaining", "setting": "cytosolic GSTs; male rat preparations with GSH, without inhibitor", "value": "64±1", "unit": "%"}, {"measurement": "experimental solubility", "setting": "[3]", "value": "22 ± 1.7", "unit": "µg/mL"}, {"measurement": "CYP Scaled CLint", "setting": "[4]; female rat", "value": 57.80, "unit": "mL/min/g liver"}, {"measurement": "enantiomeric fraction (EF = A1/(A1+A2))", "setting": "[4]; female rat liver microsomes with NADPH, 30 minutes", "value": "0.67±0.01 and 0.67"}, {"measurement": "enantiomeric fraction (EF = A1/(A1+A2))", "setting": "[4]; female rat liver microsomes with NADPH, start of 30-minute time-course", "value": 0.48}, {"measurement": "percentage of benoxacor remaining", "setting": "[4]; female rat liver microsomes, 30 minutes", "value": "48±1", "unit": "%"}, {"measurement": "CYP Scaled CLint", "setting": "[4]; male rat", "value": 50.13, "unit": "mL/min/g liver"}, {"measurement": "enantiomeric fraction (EF = A1/(A1+A2))", "setting": "[4]; male rat liver microsomes with NADPH, 30 minutes", "value": "0.60±0.01 and 0.60"}, {"measurement": "enantiomeric fraction (EF = A1/(A1+A2))", "setting": "[4]; male rat liver microsomes with NADPH, start of 30-minute time-course", "value": 0.48}, {"measurement": "percentage of benoxacor remaining", "setting": "[4]; male rat liver microsomes, 30 minutes", "value": "45±1", "unit": "%"}, {"measurement": "microsomal CLint", "setting": "[5]; female", "value": 1280, "unit": "µL/min/mg"}, {"measurement": "microsomal CLint", "setting": "[5]; male", "value": 1110, "unit": "µL/min/mg"}, {"measurement": "microsomal CLint", "setting": "[6]", "value": 150, "unit": "µL/min/mg"}, {"measurement": "enantiomeric fraction (EF)", "setting": "[7]; active female rat microsomes without NADPH, 30 minutes", "value": 0.47}, {"measurement": "enantiomeric fraction (EF)", "setting": "[7]; active female rat microsomes without NADPH, initial value", "value": 0.48}, {"measurement": "enantiomeric fraction (EF)", "setting": "[7]; active male rat microsomes without NADPH, initial value", "value": 0.48}, {"measurement": "CES Scaled CLint", "setting": "[7]; male rat", "value": 6.74, "unit": "mL/min/g liver"}]}
{"compound": "O=C(C(=O)c1ccccc1)c1ccccc1", "note": "[benzil, Benzil, reference compound]", "values": [{"measurement": "inhibition of the loss of benoxacor by the CES inhibitor", "setting": "microsomal CESs; male rat liver microsomes without NADPH, 30 minutes, 5, 50, 500 nM", "value": "significantly inhibited"}]}
